From ChEMBL document CHEMBL3588854, “Synthesis of 5-isoxazol-3-yl-pyrimidine nucleosides as potential antileishmanial agents” (Bioorg Med Chem Lett, 2015)
Active and inactive are the calls of the source. The rule behind the calls is not given here.

System: Leishmania donovani
Assay: Antileishmanial activity against amastigote stage of Leishmania donovani MHOM/ET/67/HU3 infected in mouse RAW264.7 cells assessed as inhibition of parasite growth after 48 hrs by SYBR green I incorporation assay
Assay type: functional, organism-based
Details: for IC50: MHOM/ET/67/HU3, RAW264.7, 48 h

CC(=O)OC[C@H]1O[C@@H](n2cc(-c3cc(-c4ccc(Br)cc4)on3)c(=O)[nH]c2=O)C[C@@H]1OC(C)=O
growth inhibition (GI): inactive

CC(=O)OC[C@@H]1C=C[C@H](n2cc(-c3cc(-c4ccccc4)on3)c(=O)[nH]c2=O)O1
growth inhibition (GI): inactive

CC(=O)OC[C@H]1O[C@@H](n2cc(-c3cc(CBr)on3)c(=O)[nH]c2=O)C[C@@H]1OC(C)=O
growth inhibition (GI): inactive

O=c1[nH]c(=O)n([C@H]2C[C@H](O)[C@@H](CO)O2)cc1-c1cc(-c2ccc(F)cc2)on1
IC50: 580 nM

O=c1[nH]c(=O)n([C@@H]2O[C@H](CO)[C@@H](O)[C@H]2O)cc1-c1cc(-c2ccc(F)cc2)on1
IC50: 1470 nM

O=c1[nH]c(=O)n([C@H]2C[C@H](O)[C@@H](CO)O2)cc1-c1cc(-c2ccccc2)on1
IC50: 760 nM

CC(=O)OC[C@H]1O[C@@H](n2cc(-c3cc(-c4ccc(C)cc4)on3)c(=O)[nH]c2=O)C[C@@H]1OC(C)=O
IC50: 1700 nM

CCCCCCCCc1cc(-c2cn([C@H]3C[C@H](O)[C@@H](CO)O3)c(=O)[nH]c2=O)no1
IC50: > 12500 nM

CC(=O)OC[C@H]1O[C@@H](n2cc(-c3cc(-c4ccc(F)cc4)on3)c(=O)[nH]c2=O)[C@H](OC(C)=O)[C@@H]1OC(C)=O
IC50: 780 nM

CC(=O)OC[C@H]1O[C@@H](n2cc(-c3cc(-c4ccc(F)cc4)on3)c(=O)[nH]c2=O)C[C@@H]1OC(C)=O
IC50: 700 nM

CCCCCCCCCCCCCCCCOP(=O)([O-])OCC[N+](C)(C)C [MILTEFOSINE]
IC50: 5750 nM

O=c1[nH]c(=O)n([C@H]2C[C@H](O)[C@@H](CO)O2)cc1-c1cc(CO)on1
IC50: 730 nM

CC(=O)OC[C@H]1O[C@@H](n2cc(-c3cc(CO)on3)c(N)nc2=O)C[C@@H]1OC(C)=O
IC50: 3130 nM

CC(=O)OC[C@H]1O[C@@H](n2cc(-c3cc(-c4ccccc4)on3)c(=O)[nH]c2=O)C[C@@H]1OC(C)=O
growth inhibition (GI): inactive

CC(=O)OC[C@H]1O[C@@H](n2cc(-c3cc(-c4ccccc4)on3)c(=O)[nH]c2=O)C[C@@H]1N=[N+]=[N-]
growth inhibition (GI): inactive

CC(=O)OC[C@H]1O[C@@H](n2cc(-c3cc(-c4ccccc4)on3)c(N)nc2=O)C[C@@H]1OC(C)=O
IC50: 1610 nM

CC(=O)OC[C@H]1O[C@@H](n2cc(-c3cc(CO)on3)c(=O)[nH]c2=O)C[C@@H]1OC(C)=O
IC50: 3390 nM

O=c1[nH]c(=O)n([C@H]2C=C[C@@H](CO)O2)cc1-c1cc(-c2ccccc2)on1
IC50: 4560 nM

CCCCCCCCc1cc(-c2cn([C@H]3C[C@H](OC(C)=O)[C@@H](COC(C)=O)O3)c(=O)[nH]c2=O)no1
IC50: 20900 nM

[N-]=[N+]=N[C@H]1C[C@H](n2cc(-c3cc(CO)on3)c(=O)[nH]c2=O)O[C@@H]1CO
IC50: 490 nM

Cc1ccc(-c2cc(-c3cn([C@H]4C[C@H](O)[C@@H](CO)O4)c(=O)[nH]c3=O)no2)cc1
IC50: 610 nM

CC(=O)OC[C@H]1O[C@@H](n2cc(-c3cc(-c4ccccc4)on3)c(=O)[nH]c2=O)[C@H](OC(C)=O)[C@@H]1OC(C)=O
growth inhibition (GI): inactive

CC(=O)OC[C@H]1O[C@@H](n2cc(-c3cc(-c4ccc(F)cc4)on3)c(=O)[nH]c2=O)C[C@@H]1N=[N+]=[N-]
IC50: > 12500 nM

Nc1nc(=O)n([C@H]2C[C@H](O)[C@@H](CO)O2)cc1-c1cc(-c2ccccc2)on1
IC50: 610 nM

CC(=O)OC[C@H]1O[C@@H](n2cc(-c3cc(CO)on3)c(=O)[nH]c2=O)C[C@@H]1N=[N+]=[N-]
IC50: > 12500 nM

C[C@@H]1[C@H](O)[C@@H](C)/C=C/C=C/C=C/C=C/C=C/C=C/C=C/[C@H](O[C@@H]2O[C@H](C)[C@@H](O)[C@H](N)[C@@H]2O)C[C@@H]2O[C@](O)(C[C@@H](O)C[C@@H](O)[C@H](O)CC[C@@H](O)C[C@@H](O)CC(=O)O[C@H]1C)C[C@H](O)[C@H]2C(=O)O [AMPHOTERICIN B]
IC50: 310 nM
